# Experiments:
# [1] = Human Liver Microsomal Stability (Test C); type: in vitro ADME; conditions: human, liver microsomes
# In short: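 Human liver microsome incubation per the Wernevik et al. integrated DMPK panel protocol. Intrinsic clearance reported as CLint in μl/min/mg protein, averaged arithmetically over repeat runs.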
# [2] = Solubility (Test F); type: physicochemical; conditions: arithmetic mean if run multiple times
# Description: The assay was conducted according to the Solubility Assay described in pages 164-167 of Wernevik, J. et al., “A Fully Integrated Assay Panel for Early Drug Metabolism and Pharmacokinetics Profiling”, Assay and Drug Development Technologies, 2020, 18(4), 157-179. Data are reported in Table 36 as solubility ([…]. Where the assay was run multiple times for the same compound, the arithmetic mean is reported.
# [3] = Human Plasma Protein Binding (Test B); type: in vitro ADME; conditions: fraction unbound (fu)
# In short: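 Human plasma protein binding run per the published Wernevik et al. (2020) integrated DMPK panel protocol. Values are fraction unbound (fu, % free); repeat runs averaged arithmetically.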
# [4] = Rat Hepatocyte Stability (Test E); type: in vitro ADME; conditions: rat, hepatocytes, geometric mean if run multiple times
# In short: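 Run per the published AstraZeneca-type rat hepatocyte stability protocol (Wernevik et al. panel). Values are mean intrinsic clearance, Clint in μl/min/10^6 cells; geometric mean used for repeated runs.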
# [5] = molecular target: T1, human RXFP1 (Homo sapiens, UniProt Q9HBX9); test: RXFP1 Hu cAMP (Test A); type: cell-based; parameters: expressed in transfected cells; host or cells: Jump-In T-REx CHO-K1 cells (ThermoFisher), induced with 10 ng/ml doxycycline for 24 h; conditions: RXFP1 Hu cAMP; for EC50: read-out: Test A EC50
# T1 sequence (Q9HBX9 1-757): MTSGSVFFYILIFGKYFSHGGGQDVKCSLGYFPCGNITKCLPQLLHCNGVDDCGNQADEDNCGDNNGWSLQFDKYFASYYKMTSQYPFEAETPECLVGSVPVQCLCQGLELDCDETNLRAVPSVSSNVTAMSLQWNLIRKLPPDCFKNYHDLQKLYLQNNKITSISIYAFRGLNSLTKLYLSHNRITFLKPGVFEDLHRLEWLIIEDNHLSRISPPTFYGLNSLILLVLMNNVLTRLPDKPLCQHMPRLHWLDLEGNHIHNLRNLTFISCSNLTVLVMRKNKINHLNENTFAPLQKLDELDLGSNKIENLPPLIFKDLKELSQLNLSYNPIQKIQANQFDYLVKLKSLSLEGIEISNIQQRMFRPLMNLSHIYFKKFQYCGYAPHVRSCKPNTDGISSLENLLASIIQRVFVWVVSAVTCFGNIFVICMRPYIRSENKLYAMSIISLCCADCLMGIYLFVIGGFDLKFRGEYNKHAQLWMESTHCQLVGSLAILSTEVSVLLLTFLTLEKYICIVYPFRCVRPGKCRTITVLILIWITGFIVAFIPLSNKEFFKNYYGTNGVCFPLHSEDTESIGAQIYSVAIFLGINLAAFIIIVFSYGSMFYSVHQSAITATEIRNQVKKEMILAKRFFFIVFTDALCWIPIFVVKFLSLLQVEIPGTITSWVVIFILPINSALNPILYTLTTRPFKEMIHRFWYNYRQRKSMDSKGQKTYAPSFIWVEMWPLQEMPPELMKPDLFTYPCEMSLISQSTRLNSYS
# In short: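 Cells: CHO-K1 stably carrying human RXFP1, expressed after 24 h 10 ng/ml doxycycline; 0.5 mM IBMX final, HTRF detection after 2 h at room temperature.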
SMILES,microsomal CLint [1] [µL/min/mg],solubility [2] [µM],Test B Human Plasma Protein Binding (% free) [3] [% free],hepatocyte CLint [4] [µL/min/1e6 cells],EC50 [5] [nM],Test A Sinf [5] [%]
"COc1cc(C#N)c(O[C@H]2C[C@@](C)(C(=O)O)C2)cc1C(=O)N[C@@H]1[C@H]2CC[C@H](C2)[C@@H]1C(=O)NCC1(C)CCC1 [Example 148, (1S,3s)-3-(2-cyano-4-methoxy-5-(((1S,2R,3S,4R)-3-(((1-methylcyclobutyl)methyl)carbamoyl)bicyclo[2.2.1]heptan-2-yl)carbamoyl)phenoxy)-1-methylcyclobutane-1-carboxylic acid]",7.4,890,0.59,18,> 5000,–
"COc1cc(F)c(O[C@H]2CC[C@@](C)(C(=O)O)CC2)cc1C(=O)Nc1c(C)cccc1C(=O)NCC1(C)CCC1 [Example 156, (1s,4s)-4-(2-Fluoro-4-methoxy-5-((2-methyl-6-(((1-methylcyclobutyl)methyl)carbamoyl)phenyl)carbamoyl)phenoxy)-1-methylcyclohexane-1-carboxylic acid]",4.3,770,3.2,22,–,97
"COc1cc(F)c(O[C@H]2CC[C@@H](C(=O)O)CC2)cc1C(=O)NC1C(C(=O)NCCCC(F)(F)F)[C@@H]2CC[C@H]1C2 (stereo partly drawn) [Example 175, (1S,4s)-4-(2-Fluoro-4-methoxy-5-(((1S,2R,3S,4R)-3-((4,4,4-trifluorobutyl)carbamoyl)bicyclo[2.2.1]heptan-2-yl)carbamoyl)phenoxy)cyclohexane-1-carboxylic acid]",5.8,> 1000,14,110,> 5900,100
COc1cc(F)c(O[C@H]2CC[C@@H](C(=O)O)CC2)cc1C(=O)N[C@@H]1[C@H]2CC[C@H](C2)[C@@H]1C(=O)NCCC1CC1 [Example 176],8,210,9.3,120,> 4300,75
COc1cc(F)c(O[C@H]2CC[C@@H](C(=O)O)CC2)cc1C(=O)N[C@@H]1[C@H]2CC[C@H](C2)[C@@H]1C(=O)NC1CCC1 [Example 177],3.5,> 1000,15,130,> 2200,100
COc1cc(F)c(O[C@H]2CC[C@@H](C(=O)O)CC2)cc1C(=O)N[C@@H]1[C@H]2CC[C@H](C2)[C@@H]1C(=O)NC12CC(C1)C2 [Example 178],8.6,> 1000,17,39,> 2700,95
COc1cc(F)c(O[C@H]2CC[C@@H](C(=O)O)CC2)cc1C(=O)N[C@@H]1[C@H]2CC[C@H](C2)[C@@H]1C(=O)Nc1cccc(S(F)(F)(F)(F)F)c1 [Example 182],34,200,0.45,35,19,107
COc1cc(F)c(O[C@H]2CC[C@@H](C(=O)O)CC2)cc1C(=O)N[C@@H]1[C@H]2CC[C@H](C2)[C@@H]1C(=O)Nc1ccc(S(F)(F)(F)(F)F)cc1 [Example 183],23,50,0.50,13,420,99
"COc1cc(F)c(O[C@H]2CC[C@@H](C(=O)O)CC2)cc1C(=O)N[C@@H]1[C@H]2CC[C@H](C2)[C@@H]1C(=O)Nc1c(F)cccc1F [Example 184, (1S,4s)-4-(5-(((1S,2R,3S,4R)-3-((2,6-Difluorophenyl)carbamoyl)bicyclo[2.2.1]heptan-2-yl)carbamoyl)-2-fluoro-4-methoxyphenoxy)cyclohexane-1-carboxylic acid]",7.4,> 1000,8.6,70,> 40000,–
COc1cc(F)c(O[C@H]2CC[C@@H](C(=O)O)CC2)cc1C(=O)N[C@@H]1[C@H]2CC[C@H](C2)[C@@H]1C(=O)Nc1cccc(I)c1 [Example 185],48,270,0.37,83,200,108
COc1cc(F)c(O[C@H]2CC[C@@H](C(=O)O)CC2)cc1C(=O)N[C@@H]1[C@H]2CC[C@H](C2)[C@@H]1C(=O)Nc1ccc(Cl)c(C(F)(F)F)c1 [Example 186],27,80,0.24,20,18,110
COc1cc(F)c(O[C@H]2CC[C@@H](C(=O)O)CC2)cc1C(=O)N[C@@H]1[C@H]2CC[C@H](C2)[C@@H]1C(=O)Nc1cc(F)c(F)c(F)c1 [Example 187],15,580,0.41,21,250,105
COc1cc(F)c(O[C@H]2CC[C@@H](C(=O)O)CC2)cc1C(=O)N[C@@H]1[C@H]2CC[C@H](C2)[C@@H]1C(=O)Nc1cc(C)cc(C(F)(F)F)c1 [Example 188],36,290,0.64,38,270,103
COc1cc(F)c(O[C@H]2CC[C@@H](C(=O)O)CC2)cc1C(=O)N[C@@H]1[C@H]2CC[C@H](C2)[C@@H]1C(=O)Nc1cccc(C(C)(C)C)c1 [Example 189],34,83,1.5,23,130,101
COc1cc(F)c(O[C@H]2CC[C@@H](C(=O)O)CC2)cc1C(=O)N[C@@H]1[C@H]2CC[C@H](C2)[C@@H]1C(=O)Nc1cccc(C2CC2)c1 [Example 190],23,420,1.6,120,680,110
"COc1cc(F)c(O[C@H]2CC[C@@H](C(=O)O)CC2)cc1C(=O)N[C@@H]1[C@H]2CC[C@H](C2)[C@@H]1C(=O)Nc1cc(C#N)cc(C(F)(F)F)c1 [Example 191, (1S,4s)-4-(5-(((1S,2R,3S,4R)-3-((3-Cyano-5-(trifluoromethyl)phenyl)carbamoyl)bicyclo[2.2.1]heptan-2-yl)carbamoyl)-2-fluoro-4-methoxyphenoxy)cyclohexane-1-carboxylic acid]",20,> 1000,1.1,15,> 3600,86
"COc1cc(F)c(O[C@H]2CC[C@@H](C(=O)O)CC2)cc1C(=O)N[C@@H]1[C@H]2CC[C@H](C2)[C@@H]1C(=O)Nc1ccc(C)c(C(F)(F)F)c1 [Example 192, (1S,4s)-4-(2-Fluoro-4-methoxy-5-(((1S,2R,3S,4R)-3-((4-methyl-3-(trifluoromethyl)phenyl)carbamoyl)bicyclo[2.2.1]heptan-2-yl)carbamoyl)phenoxy)cyclohexane-1-carboxylic acid]",21,120,0.67,43,35,109

# From patent publication US11667602B2, “Compounds and their use” (AstraZeneca AB, priority 2020, dated 2023)
